Assay results reported in patent publication US20110136229A1, “Novel lectin” (National Taiwan University, priority 2009, published 2011).
Values after ≈ are worked out from the molar mass of the structure shown.

Legend:
[1] = system: lectin of Carica papaya; test: Analysis of sugar-binding specificity (inhibition of lectin-induced hemagglutination by sugars, IC50); format: cell-based; settings: lowest sugar concentration inhibiting 50% agglutinating activity; peak 1 diluted to HA titer 32
Method: The N-acetylgalactosamine, galactose, lactose, mannose, N-acetylglucosamine solutions were respectively added to the same volume of the samples, and the final sugar concentrations of the solutions were 3.1, 6.3, 12.5, 25, 50 and 100 mM, respectively. Upon well mixing, 50 μL of the mixture of the sample and the sugar solution was added to 50 μL of the human type O erythrocyte suspension (2×10^8 cells/mL) in the 96-well plate. Then, the 96-well plate was placed at 37 °C for 30 minutes, and the inhibition of the hemagglutination was observed. IC50 was defined as the lowest sugar concentration capable of inhibiting 50% agglutinating activity, wherein the inhibition area of the agglutination was at least half area of the bottom of the well.
In this embodiment, the fraction of the peak 1 (HA titer being 512) was diluted for 16 folds (HA titer being 32) for the analysis.

[2] = system: CPL; test: Hemagglutination inhibition assay on CPL by various sugars (MIC); format: cell-based, Carica papaya; settings: minimum inhibitory concentration for inhibition of 16 hemagglutination titers, 2% human erythrocytes
Method: The HA titer of the purified lectin in the present invention was 512. The purified lectin was diluted to have the HA titer as 16, and then mixed with various sugar solution to test hemagglutination inhibition on CPL by various sugars. The results were illustrated in Table 3, wherein MIC indicated minimum inhibitory concentrations required for inhibition of 16 hemagglutination titers of the lectin of the present invention against 2% human 0-type erythrocytes, and all sugars are of D configuration.

[3] = system: CPL (Carica papaya lectin), purified lectin from papaya seeds; test: Interaction between CPL and immobilized GalNAc residues by surface plasmon resonance; format: binding; settings: GalNAc-PAA-biotin polymers immobilized on SA chip, CPL 1.8-30 nM as analyte, Biacore T100
Method: (3) Interaction Between CPL and Immobilized GalNAc Residues by Surface Plasmon Resonance
GalNAc-PAA-biotin polymers were immobilized to a sensor chip modified with streptavidin (SA). The regeneration solution for the chip was 50 mM phosphate saline buffer (pH 7.0) containing 200 mM GalNAc. The concentrations of the purified CPL were adjusted to 30, 15, 7.5, 3.7 and 1.8 nM to be analytes, then subjected to the sensor chip immobilized with GalNAc-PAA-biotin polymers, and analyzed by Biacore T100 surface plasmon resonance analyzing machine. The obtained sensorgrams were analyzed and calculated by BIACORE T100 Evaluation software 2.0. After CPL was combined with GalNAc ligand on the sensor chip, the dissociation curve declined gradually. In other words, CPL had great affinity to GalNAc. […] (4) Immunomodulatory Effect of CPL on the Cytotoxicity and Induction of Cytokine Production in Jurkat T Lymphocytes

[4] = system: Jurkat T lymphocytes; format: cell-based, human; settings: 1 μg/mL, 24 hours
Method: […] After incubation for 24 hours, cell viability was measured by cell proliferation reagent, WST-1 (4-[3-(4-iodophenyl)-2-(4-nitrophenyl)-2H-5-tetrazolio]-1,3-benzene disulfonate), and the cytokine content in the incubation medium was analyzed. […] 24 μg/mL of CPL had inhibition effect on Jurkat T lymphocytes similar to that of 10 μg/mL of SBA, i.e., inhibiting 30% of viability after 24-hour incubation.

[5] = system: Jurkat T lymphocytes; test: IL-2 cytokine production in Jurkat T lymphocytes; format: cell-based, human; settings: 10 μg/mL, 24 hr
Method: The purified CPL was added to respective 1.8 mL of Jurkat T lymphocytes (2×10^6), wherein the final concentrations of CPL were 24, 12, 6 and 3 μg/mL, respectively. After incubation for 24 hours, cell viability was measured by cell proliferation reagent, WST-1 (4-[3-(4-iodophenyl)-2-(4-nitrophenyl)-2H-5-tetrazolio]-1,3-benzene disulfonate), and the cytokine content in the incubation medium was analyzed. […] 24 μg/mL of CPL had inhibition effect on Jurkat T lymphocytes similar to that of 10 μg/mL of SBA, i.e., inhibiting 30% of viability after 24-hour incubation.
In the control group of Jurkat T lymphocyte without lectin added therein, the concentration of IL-2 upon 24 hr incubation was approximately or lower than 10 pg/mL. However, upon incubation with lectin, Jurkat T lymphocytes were induced to secrete IL-2 into the culture medium. The concentrations of IL-2 secreted from Jurkat T lymphocytes incubated with SBA and PHA (10 μg/mL) were 377±1 and 308±7 pg/mL, respectively. After Jurkat T lymphocytes were incubated with various concentrations of CPL for 24 hours, the concentration of IL-2 in the medium was proportional to the concentration of CPL. In the medium added with 3 μg/mL of CPL, the concentration of IL-2 was 9.7 pg/mL, which had no significant difference from the control group. In the medium added with 6 μg/mL of CPL, the concentration of IL-2 was 44.5 pg/mL. […]

Row | Compound | IC50 [1] | MIC [2] | also measured
1 | CC(=O)N[C@H]1C(O)O[C@H](CO)[C@H](O)[C@@H]1O (stereo partly shown) [N-acetylgalactosamine] | 6.3 mM | 6.3 mM (≈ 1.39 mg/mL) | combination rate (Kon) [3]: 5.5×10^4 1/MS; dissociation rate (Koff) [3]: 3×10^−4 1/S; Kd ([3]; read-out: dissociation constant (Kd)): ~5.5 nM
2 | O=C[C@H](O)[C@@H](O)[C@@H](O)[C@H](O)CO [Galactose] | > 100 mM | >100 mM | –
3 | SBA: soybean agglutinin, which specifically binds to GalNAc | – | – | effect on viability [4]: no significant effect; concentration of IL-2 in medium [5]: 377 ± 1 pg/mL
4 | OC[C@H]1O[C@@H](O[C@H]2[C@H](O)[C@@H](O)C(O)O[C@@H]2CO)[C@H](O)[C@@H](O)[C@H]1O (stereo partly shown) [Lactose] | 6.3 mM | 6.3 mM (≈ 2.16 mg/mL) | –
5 | CC(=O)N[C@H]1C(O)O[C@H](CO)[C@@H](O)[C@@H]1O (stereo partly shown) [N-acetylglucosamine] | > 100 mM | – | MIC ([2]; listed as GlcNAc): >100 mM
